From patent publication US10808007B2, “Desacetoxytubulysin H and analogs thereof” (WILLIAM MARSH RICE UNIVERSITY, priority 2015, dated 2020)
Read-outs that look alike come from different tables or passages of the source.

What was measured:
Format in all cases: cell-based
[1] = system: NCI-60 human cancer cell line panel; test: NCI-60 one-dose test; settings: one-dose test (10 μM), NCI-60 panel
Protocol: (§1) A number of the synthesized compounds (i.e. Tb1-Tb23) were evaluated for their activity against a variety of cancer cell lines, namely the NCI-60 human cancer cell line panel representing leukemia, melanoma, lung, colon, brain, ovary, breast, prostate and kidney types of cancer through the In Vitro Cell Line Screening Project (IVCLSP) of the National Cancer Institute (NCI), and a summary of the results is shown in Table 1. […] As there was interest in the activity in certain other cell lines, these and the remaining compounds (Tb1-Tb41, PTb-D42 and PTb-D43) were subjected to further testing against MES SA (uterine sarcoma cells), MES SA DX (multidrug resistant uterine sarcoma cells), and HEK 293T (human embryonic kidney cells). […] Tubulysins are known to be substrates for Pgp pumps (Xiangming, et al., 2013; Kaur, et al., 2006; Szakacs, et al., 2006) as supported by the observed low activities of all tubulysins tested except Tb28, Tb32 and Tb33.

[2] = system: MES SA (uterine sarcoma cells); test: Cytotoxic assay (CellTiter-Glo, 72 h), MES SA; settings: Homo sapiens, MES-SA, read-out: IC50 MES SA
[3] = system: MES SA DX (multidrug resistant uterine sarcoma cells); test: Cytotoxic assay (CellTiter-Glo, 72 h), MES SA DX; settings: Homo sapiens
[4] = system: HEK 293T (human embryonic kidney cells); test: Cytotoxic assay (CellTiter-Glo, 72 h), HEK 293T; settings: Homo sapiens, HEK-293T, read-out: IC50 HEK 293T
[5] = system: leukemia cancer cell lines; test: NCI-60 cytotoxicity, leukemia; settings: Homo sapiens
Protocol: as §1

[6] = system: non-small cell lung cancer cell lines; test: NCI-60 cytotoxicity, non-small cell lung cancer; settings: Homo sapiens
Protocol: as §1

colon cancer cell lines = test: NCI-60 cytotoxicity, colon cancer; settings: Homo sapiens
Protocol: as §1

CNS cancer cell lines = test: NCI-60 cytotoxicity, CNS cancer; settings: Homo sapiens
Protocol: as §1

melanoma cell lines = test: NCI-60 cytotoxicity, melanoma; settings: Homo sapiens
Protocol: as §1

[7] = system: ovarian cancer cell lines; test: NCI-60 cytotoxicity, ovarian cancer; settings: Homo sapiens
Protocol: as §1

renal cancer cell lines = test: NCI-60 cytotoxicity, renal cancer; settings: Homo sapiens
Protocol: as §1

[8] = system: prostate cancer cell lines; test: NCI-60 cytotoxicity, prostate cancer; settings: Homo sapiens
Protocol: as §1

breast cancer cell lines = test: NCI-60 cytotoxicity, breast cancer; settings: Homo sapiens
Protocol: as §1

Compound | IC50 ([2]; 72 h) | IC50 [3] | IC50 ([4]; 72 h) | GI50 ([5]; NCI-60, selected value) | GI50 ([6]; NCI-60, selected value) | GI50 (colon cancer cell lines; NCI-60, selected value) | GI50 (CNS cancer cell lines; NCI-60, selected value) | GI50 (melanoma cell lines; NCI-60, selected value) | GI50 ([7]; NCI-60, selected value) | GI50 (renal cancer cell lines; NCI-60, selected value) | GI50 ([8]; NCI-60, selected value) | GI50 (breast cancer cell lines; NCI-60, selected value) | other results
CCC(C)[C@H](NC(=O)c1ccccn1)C(=O)N(C)[C@H](C[C@@H](OC(C)=O)c1nc(C(=O)NC23C4C5C2C2C3C4C52C(=O)OC)cs1)C(C)C (stereo in doubt) [Tb12, Methyl 4-(2-((1R,3R)-1-acetoxy-3-((2S,3S)—N,3-dimethyl-2-(picolinamido)pentanamido)-4-methyl-pentyl)thiazole-4-carboxamido)cubane-1-carboxylate] | > 50 nM | > 50 nM | > 50 nM |  |  |  |  |  |  |  |  |  | one dose, mean growth % [1]: 84.90%
CCC(C)[C@H](NC(=O)c1ccccn1)C(=O)N(C)[C@H](C[C@@H](OC(C)=O)c1nc(C(=O)NC23CC(C(=O)OC)(C2)C3)cs1)C(C)C (stereo in doubt) [Tb15, Methyl 3-(2-((1R,3R)-1-acetoxy-3-((2S,3S)—N,3-dimethyl-2-(picolinamido)pentanamido)-4-methyl-pentyl)thiazole-4-carboxamido)bicyclo[1.1.1]pentane-1-carboxylate] | > 50 nM | > 50 nM | > 50 nM |  |  |  |  |  |  |  |  |  | one dose, mean growth % [1]: 94.38%
CC[C@H](C)[C@H](NC(=O)C12CC(NC(C)=O)(C1)C2)C(=O)N(C)[C@H](C[C@@H](OC(C)=O)c1nc(C(=O)N[C@@H](Cc2ccccc2)C[C@H](C)C(=O)OC)cs1)C(C)C [Tb7, Methyl (2S,4R)-4-(2-((1R,3R)-3-((2S,3S)-2-(3-acetamidobicyclo[1.1.1]pentane-1-carboxamido)-N,3-dimethylpentanamido)-1-acetoxy-4-methylpentyl)thiazole-4-carboxamido)-2-methyl-5-phenyl-pentanoate] | > 50 nM | > 50 nM | > 50 nM | 17.6 nM | 57.8 nM | 61.3 nM | 219 nM | 31.4 nM | 48.5 nM | 134 nM | 105 nM | 42.8 nM | 
CC[C@H](C)[C@H](NC(=O)C12CC(NC)(C1)C2)C(=O)N(C)[C@H](C[C@@H](OC(C)=O)c1nc(C(=O)N[C@@H](Cc2ccccc2)C[C@H](C)C(=O)OC)cs1)C(C)C [Tb8, Methyl(2S,4R)-4-(2-((1R,3R)-1-acetoxy-3-((2S,3S)—N,3-dimethyl-2-(3-(methylamino)-bicyclo[1.1.1]pentane-1-carboxamido)pentanamido)-4-methylpentyl)thiazole-4-carboxamido)-2-methyl, 5-phenyl-pentanoate-phenylpentanoate] | > 50 nM | > 50 nM | > 50 nM | 9.62 nM | 96.7 nM | 121 nM | 105 nM | 33.3 nM | 75 nM | 164 nM | 125 nM | 52.1 nM | 
CC[C@H](C)[C@H](NC(=O)C12C3C4C1C1C2C3C41NC(C)=O)C(=O)N(C)[C@H](C[C@@H](OC(C)=O)c1nc(C(=O)N[C@@H](Cc2ccccc2)C[C@H](C)C(=O)OC)cs1)C(C)C (stereo partly drawn) [Tb9, Methyl(2S,4R)-4-(2-((R,3R)-3-((2S,3S)-2-(4-acetamidocubane-1-carboxamido)-N,3-dimethylpentan amido)-1-acetoxy-4-methylpentyl)thiazole-4-carboxamido)-2-methyl-5-phenylpentanoate] | > 50 nM | > 50 nM | > 50 nM | 24.2 nM | 83.6 nM | 331 nM | 246 nM | 46.6 nM | 61 nM | 238 nM | 459 nM | 53.2 nM | 
CC[C@H](C)[C@H](NC(=O)C12C3C4C1C1C2C3C41NC)C(=O)N(C)[C@H](C[C@@H](OC(C)=O)c1nc(C(=O)N[C@@H](Cc2ccccc2)C[C@H](C)C(=O)OC)cs1)C(C)C (stereo partly drawn) [Tb10, Methyl(2S,4R)-4-(2-((1R,3R)-1-acetoxy-3-((2S,3S)—N,3-dimethyl-2-(4-(methylamino)cubane-1-carboxamido)pentanamido)-4-methylpentyl)thiazole-4-carboxamido)-2-methyl-5-phenylpentanoate] | > 50 nM | > 50 nM | > 50 nM | 61.3 nM | 60.2 nM | 355 nM | 271 nM | 49.5 nM | 92.6 nM | 413 nM | 500 nM | 66.4 nM | 
CC[C@@H](C)[C@H](NC(=O)CN(C)C)C(=O)N(C)[C@H](C[C@@H](OC(C)=O)c1nc(C(=O)NC23CC(C(=O)OC)(C2)C3)cs1)C(C)C [Tb16] | > 50 nM | > 50 nM | > 50 nM | 15.1 nM | 85 nM | 98.1 nM | 127 nM | 46.1 nM | 99.1 nM | 186 nM | 303 nM | 123 nM | 
COC(=O)[C@@H](C)C[C@H](Cc1ccccc1)NC(=O)c1csc([C@@H](C[C@H](C(C)C)N(C)C(=O)[C@@H](NC(=O)[C@H]2CCCCN2C)C2CC2)OC(C)=O)n1 [Tb20, Methyl (2S,4R)-4-(2-((1R,3R)-1-acetoxy-3-((S)-2-cyclopropyl-N-methyl-2-((R)-1-methylpiperidine-2-carboxamido)acetamido)-4-methylpentyl)thiazole-4-carboxamido)-2-methyl-5-phenylpentanoate] | 0.046 nM | < 200 nM | 0.047 nM |  |  | 0.263 nM | 0.345 nM | 0.035 nM |  |  | 0.211 nM |  | GI50 ([5]; NCI-60): 0.098 nM; GI50 ([6]; NCI-60): 0.247 nM; GI50 (colon cancer cell lines; NCI-60): 0.263 nM; GI50 (CNS cancer cell lines; NCI-60): 0.345 nM; GI50 (melanoma cell lines; NCI-60): 0.035 nM; GI50 ([7]; NCI-60): 0.049 nM; GI50 (renal cancer cell lines; NCI-60): 0.27 nM; GI50 ([8]; NCI-60): 0.211 nM; GI50 (breast cancer cell lines; NCI-60): 0.044 nM; IC50 [2]: 0.046 nM; IC50 [4]: 0.047 nM
COC(=O)[C@@H](C)C[C@H](Cc1ccccc1)NC(=O)c1csc([C@@H](C[C@H](C(C)C)N(C)C(=O)[C@@H](NC(=O)CN(C)C)C2CC2)OC(C)=O)n1 [Tb21, Methyl (2S,4R)-4-(2-((6S,9R,11R)-6-cyclopropyl-9-isopropyl-2,8-dimethyl-4,7,13-trioxo-12-oxa-2,5,8-triazatetradecan-11-yl)thiazole-4-carboxamido)-2-methyl-5-phenylpentanoate] | 16.8 nM | > 50 nM | > 10 nM | 1.65 nM | 6.62 nM | 23.9 nM | 24.1 nM | 2.23 nM | 5.79 nM | 23.2 nM | 34.6 nM | 4.04 nM | 
CNC12C3C4C1C1C2C3C41C(=O)N[C@H](C(=O)N(C)[C@H](C[C@@H](OC(C)=O)c1nc(C(=O)N[C@@H](Cc2ccccc2)C[C@H](C)C(=O)OC)cs1)C(C)C)C1CC1 (stereo partly drawn) [Tb23, Methyl (2S,4R)-4-(2-((1R,3R)-1-acetoxy-3-((S)-2-cyclopropyl-N-methyl-2-(4-(methylamino)cubane-1-carboxamido)acetamido)-4-methylpentyl)thiazole-4-carboxamido)-2-methyl-5-phenylpentanoate] | > 50 nM | > 50 nM | > 50 nM | 16.3 nM | 84.5 nM | 204 nM | 119 nM | 45.1 nM | 54.9 nM | 181 nM | 308 nM | 44.7 nM | 
